The target of assay [1] is T1, 14-3-3-H (Homo sapiens, UniProt Q04917).
T1 construct: His-tag (TEV-cleavable) (cleaved yes); host or cells: E. coli (BL21)
T1 sequence (Q04917 1-246): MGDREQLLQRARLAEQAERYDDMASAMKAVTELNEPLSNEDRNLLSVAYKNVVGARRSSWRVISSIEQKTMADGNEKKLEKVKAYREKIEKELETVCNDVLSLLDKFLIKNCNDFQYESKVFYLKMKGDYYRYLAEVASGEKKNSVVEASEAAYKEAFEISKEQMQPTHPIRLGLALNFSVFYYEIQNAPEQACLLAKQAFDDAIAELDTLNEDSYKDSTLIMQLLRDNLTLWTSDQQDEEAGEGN
Nature of the assay: Fluorescent thermal shift assay (FTSA) with 14-3-3-H. Type of assay: binding. On the procedure: His-tagged 14-3-3-E, B, and H plasmids were purchased from Addgene (plasmid ID# 31562, 39128, and 38814, respectively). E. coli (BL21) were transformed with extracted plasmids via heat shock and plated on selected media. Individual colonies were selected, grown, and sequenced to confirm gene presence. 1 L cultures were grown to an OD600 of 0.6 at 37 °C and 220 rpm. Protein expression was induced with 1 mM IPTG and expressed for 12 h at 100 rpm and room temperature (approximately 25 °C). Cells were spun down at 4000 rpm for 15 min at 4 °C and resuspended in lysis buffer containing 50 mM Tris (7.4), 150 mM NaCl, 0.08% DDM, 5 mM imidazole, and 5% glycerol (with an EDTA-free complete mini protease inhibitor cocktail). Cells were lysed via sonication, and the lysate was separated from cell debris by centrifugation at 15,000 rpm, 4 °C, for 45 min. The His-tagged protein was purified using QIAGEN Ni-NTA superflow columns, and the His-tag was removed with TEV protease. His-tag-removed proteins were further purified by size exclusion chromatography. His tag removal and size exclusion chromatography purification were done at the Northwestern University Protein Production core. […]
All of the FTSA experiments were conducted in HEPES buffer (60 mM HEPES, 150 mM NaCl, pH 7.4). […] The fluorescence was measured on a Bio-Rad CFX384 real-time PCR instrument.

The target in assay [2] is T2, 25 kDa protein band in PC12 SOD1^G93A cells (Rattus norvegicus, UniProt P62260).
T2 construct: we identified a 25 kDa covalently modified protein band in the PC12 SOD1^G93A cell line; endogenous in cells; host or cells: PC12-SOD1^G93A cells (live-cell UV photolabeling, then lysis)
T2 sequence (P62260 1-255): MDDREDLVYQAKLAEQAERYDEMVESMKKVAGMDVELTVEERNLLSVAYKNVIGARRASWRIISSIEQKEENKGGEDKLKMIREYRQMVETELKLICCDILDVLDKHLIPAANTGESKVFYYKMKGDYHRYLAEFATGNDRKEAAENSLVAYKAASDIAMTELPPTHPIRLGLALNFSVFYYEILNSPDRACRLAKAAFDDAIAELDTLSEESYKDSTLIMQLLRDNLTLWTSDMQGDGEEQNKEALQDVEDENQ
Put plainly: Live-cell photoaffinity labeling: concentration-dependent covalent modification of the 25 kDa band by PRAPP (in-gel fluorescence, Hill fit). Type of assay: binding. To be noted: all three treatment scenarios. The protocol:
PC12-SOD1^G93A cells were cultured and grown to 90% confluency (in 6-well plates) and washed once with PBS followed by the addition of serum medium containing the appropriate analyte at the indicated concentrations. Three incubation scenarios were studied (at 37 °C): Scenario 1) 12 h preincubation with PRAPP in the absence of MG-132; Scenario 2) 12 h preincubation with PRAPP in the absence of MG-132 followed by an additional 24 h incubation (control); and Scenario 3) 12 h preincubation with PRAPP followed by the addition of MG-132 (100 nM) and an additional 24 h incubation. After incubation, the medium was discarded and cells were washed with PBS (1 × 300 μL). […] Each lysate was centrifuged at 4 °C for 5 min at 13,000 rpm, and the resulting supernatant was concentrated with a centrifugal filter (Amicon Ultra Centrifugal Filters 3K cutoff, Millipore), normalized to 1.0 mg/mL by the Bradford assay, and analyzed immediately or stored at −80 °C for subsequent analysis.
In a darkened (wrapped with aluminum foil) Eppendorf tube, each lysate (30 μL [30 μg]) was incubated with 10 μL of the freshly prepared “click” premix containing CuSO4 (5 mM), sodium ascorbate (5 mM), TBTA (200 μM), and N3–Alexa-647 (50 μM) were added to PBS (50 mM, pH 7.4). […] In-gel fluorescence was monitored (excitation λ = 635 nm; emission λ = 670 nm) using a Typhoon 9400 (GE Healthcare) fluorimager. […]

For the compound `O=c1cc(COc2cc(Cl)cc(Cl)c2)[nH][nH]1` [P2], the “binding (Tm shift)” value in assay [1] was “no binding”.

Regarding `C#CCN(Cc1cc(=O)[nH][nH]1)Cc1c(F)c(F)c(N=[N+]=[N-])c(F)c1F` [PRAPP, 5-(((4-Azido-2,3,5,6-tetrafluorobenzyl)(prop-2-yn-1-yl)amino)methyl)-1,2-dihydro-3H-pyrazol-3-one], the “concentration of saturation binding kinetics” value in assay [2] was “around 30 μM”.

The record behind these values is article PMC10823514, “Target Identification of a Class of Pyrazolone Protein Aggregation Inhibitor Therapeutics for Amyotrophic Lateral Sclerosis” (ACS Central Science, 2023).
